Where no end group is shown, it is not given here. The star is where a group is joined. Octanoyl = CCCCCCCC(=O)*
Assays:
[1] = system: cultured spinal neuronal precursor cells; test: BrdU incorporation into cultured spinal neuronal precursor cells (Cell Proliferation ELISA); format: cell-based, Wistar rat; conditions: for BrdU incorporation into cultured spinal neuronal precursor cells, Mean ± S.D.: incubation 12 hours, n=6, Control 100.0 ± 6.7; for concentration that increased the BrdU incorporation into the cells: 12 hours
Excerpt: Embryos were extracted from a pregnant Wistar rat at day 17 by opening the abdomen under anesthesia. Spinal cords were collected from these embryos and subjected to papain digestion in Hank's balanced salt solution; as a result of subsequent mechanical separation by pipetting, a dispersion of embryonic spinal cord cells was obtained. After being filtered and centrifuged, the dispersed cells were suspended in a DMEM medium containing NaHCO3, 5% fetal bovine serum, penicillin (100 U/mL) and streptomycin (100 μg/mL), followed by plating onto laminin-coated 96-well multi-plates at 10^5 cells per well. After incubation for 4 days, 5-bromo-2'-deoxyuridine (BrdU) (10 μM) was added and incubation was conducted for 6 hours, followed by addition of rat ghrelin (0.003-300 nM) and subsequent incubation for 12 hours. After the end of incubation, the cells were recovered and using Cell Proliferation ELISA Kit (Roche Diagnostic GmbH, Mannheim, Germany), the amount of BrdU incorporation into the cells was measured to investigate the action of ghrelin on BrdU incorporation. Embryos were extracted from a pregnant Wistar rat at day 16 by opening the abdomen under anesthesia. Spinal cords were collected from these embryos and subjected to papain digestion in Hank's balanced salt solution; as a result of subsequent mechanical separation by pipetting, a dispersion of embryonic spinal cord cells was obtained. After being filtered and centrifuged, the dispersed cells were suspended in a DMEM medium containing NaHCO3, 5% fetal bovine serum, penicillin (100 U/mL) and streptomycin (100 μg/mL), followed by plating onto laminin-coated 96-well multi-plates at 10^5 cells per well. After incubation for 4 days, 5-bromo-2'-deoxyuridine (BrdU) (10 μM) was added and incubation was conducted for 6 hours; further, rat ghrelin, ghrelin(1-5)-Lys-NH2 (GSS(n-octanoyl)FLK-NH2), ghrelin(1-7)-Lys-NH2 ([…]) or MK-0677 having the structure indicated below was added in amounts of 0.03-3 nM and incubation was conducted for 12 hours before investigating the action of ghrelin on BrdU incorporation. After the end of incubation, the cells were recovered and using Cell Proliferation ELISA Kit (Roche Diagnostic GmbH, Mannheim, Germany), the amount of BrdU incorporation into the cells was measured to investigate the action of ghrelin on BrdU incorporation.

[2] = system: spinal neuron proliferating action of ghrelin; test: Effect of L-type calcium channel blocker on the spinal neuron proliferating action of ghrelin; format: cell-based
[3] = system: spinal neuronal precursor cells; test: Detection of BrdU positive cells with anti-BrdU antibody; format: cell-based, Wistar rat; conditions: FIG. 5, compared to the case where ghrelin was not allowed to act (physiological saline)
Excerpt: (§1) Embryos were extracted from a pregnant Wistar rat at day 17 by opening the abdomen under anesthesia. Spinal cords were collected from these embryos and subjected to papain digestion in Hank's balanced salt solution; as a result of subsequent mechanical separation by pipetting, a dispersion of embryonic spinal cord cells was obtained. After being filtered and centrifuged, the dispersed cells were suspended in a DMEM medium containing NaHCO3, 5% fetal bovine serum, penicillin (100 U/mL) and streptomycin (100 μg/mL), followed by plating onto laminin-coated 96-well multi-plates at 10^5 cells per well. After incubation for 4 days, 5-bromo-2′-deoxyuridine (BrdU) (10 μM) was added and incubation was conducted for 6 hours, followed by addition of rat ghrelin (0.003-300 nM) and subsequent incubation for 12 hours.
After the end of incubation, the cells were fixed with methanol and glacial acetic acid, had their DNA denatured with 2 N HCl; thereafter, the BrdU incorporated into the cells was measured by detecting the BrdU positive cells using a rat anti-BrdU monoclonal antibody (1:1000, Abcam, Cambridge, UK) as a primary antibody, and also using Cy™ 3-conjugated donkey anti-rat IgG polyclonal antibody (1:1000, Jackson ImmunoResearch Laboratories, Inc., PA, USA) as a secondary antibody, in order to investigate the action of ghrelin for proliferating spinal precursor cells. […]

[4] = system: spinal neuronal precursor cells; test: Double immunostaining for Nestin or Map2 and BrdU in proliferating spinal cord cells; format: cell-based, Wistar rat; conditions: FIG. 3-1 A and B; BrdU in nuclei of Nestin-stained cells, not in Map2-stained cells
Procedure: Double immunostaining was conducted in order to confirm the co-presence of the neuronal precursor cell marker Nestin or the neutron marker Map2 and GHS-R in proliferating cells (cells that were incorporating BrdU).
as §1, with “fetal” for “embryonic”, “well.” for “well. After incubation for 4 days, 5-bromo-2′-deoxyuridine (BrdU) (10 μM) was added and incubation was conducted for 6 hours, followed by addition of rat ghrelin (0.003-300 nM) and subsequent incubation for 12 hours.”
To the plates, 5-bromo-2′-deoxyuridine (BrdU) (10 μM) was added and incubation was conducted for 4 days to thereby incorporate the BrdU into the spinal cord cells. The spinal cord cells were fixed with methanol and glacial acetic acid at −20° C. for 20 minutes. After DNA denaturation with 2 M HCl, 2% normal goat serum in PBS was used to perform blocking at room temperature for 30 minutes. […]

[5] = system: rat models with injured spinal cord; test: Grafting spinal neuronal precursor cells and locally administering ghrelin to rat models with injured spinal cord; format: in vivo, SD rats
Procedure: In accordance with the procedure described in Morino, T. et al, Neuroscience Research, 2003, vol. 46, pp 309-318, the grafting of spinal neuronal precursor cells and local administration of ghrelin to rat models with injured spinal cord were assessed. Male SD rats (8 to 9 weeks old) were anesthetized with pentobarbital and incised in the back to expose a vertebra ([…]). After excising the vertebral arch, a dental drill was used to open a window with a diameter of […], and a stainless steel needle with a silicone rubber fixed thereto was applied vertically, followed by loading of the top with a 20-g weight. Following a compression time of 30 minutes, a damaging drop equivalent to a weight of about 100 g was finally applied from above to construct models suffering a movement disorder in the lower limbs. The animals were divided into three groups: 1) a group under sham operation; 2) a control group with injured spinal cord; and 3) a group with injured spinal cord, treated by cell grafting, and locally administered with ghrelin. The group under sham operation received laminectomy but was simply sutured in the muscle and skin thereafter. After injuring the spinal cord, cultured spinal neuronal precursor cells (10^5 cells/25 μL) were grafted subdurally. Rat ghrelin was administered subdurally in an amount of 1 nmol together with the cells.
Twenty-four hours after the operation, the rats were transferred into a see-through cage and observed for the frequency of their standing up (by 3-minute observation). More specifically, the frequency of the rat standing up (in such a posture that it lifted the upper limbs and supported the body weight only with the lower limbs) was counted to assess the function of its hind limbs.

Compound	BrdU incorporation into cultured spinal neuronal precursor cells, Mean ± S.D. ([1]; 0.03 nM)	BrdU incorporation into cultured spinal neuronal precursor cells, Mean ± S.D. ([1]; 0.3 nM)	BrdU incorporation into cultured spinal neuronal precursor cells, Mean ± S.D. ([1]; 3 nM)	concentration that increased the BrdU incorporation into the cells ([1]; Example 5, 0.03-3 nM tested) [nM]	suppression of the spinal neuron proliferating action of ghrelin [2]	concentration that increased the BrdU incorporation into the cells ([1]; Example 4, FIG. 4, rat ghrelin 0.003-300 nM tested) [nM]	BrdU positive cells detected [3]	cell type proliferated after treatment (BrdU with Nestin or Map2 double staining) [4]	frequency of a rat standing up per unit time, 24 hours after operation ([5]; 24 hours after operation, rat ghrelin 1 nmol subdurally together with grafted cells (10^5 cells/25 μL), 3-minute observation, control group with injured spinal cord 1.3 ± 0.6)	function of hind limbs (frequency of standing up), result in words ([5]; combination of cell grafting and local administration of ghrelin)	frequency of a rat standing up per unit time, Initial ([5]; initial, 3-minute observation)
CC(C)(N)C(=O)N[C@H](COCc1ccccc1)C(=O)N1CCC2(CC1)CN(S(C)(=O)=O)c1ccccc12 [MK-0677, reference compound]	119.5 ± 4.6	112.0 ± 13.9	105.8 ± 13.0	0.03	–	–	–	–	–	–	–
COc1ccc([C@@H]2Sc3ccccc3N(CCN(C)C)C(=O)[C@@H]2OC(C)=O)cc1 [diltiazem]	–	–	–	–	did not suppress	–	–	–	–	–	–
GSS(n-octanoyl)FLK-NH2 (GSS(Octanoyl)FLK-NH2; N-terminus assumed; SMILES CCCCCCCC(=O)OC[C@H](NC(=O)[C@H](CO)NC(=O)CN)C(=O)N[C@@H](Cc1ccccc1)C(=O)N[C@@H](CC(C)C)C(=O)N[C@@H](CCCCN)C(N)=O) [Ghrelin (1-5)-Lys-NH2]	106.9 ± 13.2	114.2 ± 11.3	103.5 ± 9.6	–	–	–	–	–	–	–	–
GSS(n-octanoyl)FLSPK-NH2 (GSS(Octanoyl)FLSPK-NH2; N-terminus assumed; SMILES CCCCCCCC(=O)OC[C@H](NC(=O)[C@H](CO)NC(=O)CN)C(=O)N[C@@H](Cc1ccccc1)C(=O)N[C@@H](CC(C)C)C(=O)N[C@@H](CO)C(=O)N1CCC[C@H]1C(=O)N[C@@H](CCCCN)C(N)=O) [Ghrelin (1-7)-Lys-NH2]	108.3 ± 11.6	115.9 ± 14.1	140.5 ± 41.9	–	–	–	–	–	–	–	–
Ghrelin: rat ghrelin: 28-residue peptide, third serine acylated with n-octanoyl; endogenous ligand of GHS-R1a (SEQ ID NO:3 or 4) (GSS(Octanoyl)FLSPEHQKAQQRKESKKPPAKLQPR)	112.5 ± 8.7	112.0 ± 15.0	120.4 ± 7.9	–	–	≥ 3	a large number of BrdU positive cells were detected	has an action for proliferating spinal neuronal precursor cells	8.7 ± 4.2	led to a recovery in the frequency of standing up	11.7 ± 2.3

Source: patent publication US20100143310A1, “SPINAL NERVE REPAIR PROMOTING THERAPEUTICS CONTAINING GHRELIN OR ITS DERIVATIVES OR SUBSTANCES THAT ACT ON GHS-R1a AS AN ACTIVE INGREDIENT” (JAPAN AS REPRESENTED BY PRESIDENT OF NATIONAL …, priority 2006, published 2010)
